36 molecules from ChEMBL document CHEMBL5344425, “Discovery of 5-(Pyrimidin-2-ylamino)-1H-indole-2-carboxamide Derivatives as Nur77 Modulators with Selective and Potent Activity Against Triple-Negative Breast Cancer” (J Med Chem, 2023) can be followed below.

Active and inactive are the calls of the source. The calls are words filed in the database; no cut-off is given here. Where only a bound is given, the exact number is not on record here.

Data set [1] relates to MDA-MB-231. The data set is described as follows: Antiproliferative activity against human MDA-MB-231 cells assessed as inhibition of cell growth measured after 24 hrs by MTT assay. In kind it is functional, cell-based. To be noted: MDA-MB-231, 24 h. (In general: Tetrazolium dyes change colour on reduction, which living cells bring about.)
For data set [2], the system named is T47D. The data set is described as follows: Antiproliferative activity against human T47D cells assessed as inhibition of cell growth measured after 24 hrs by MTT assay. In kind it is functional, cell-based.
Data set [3] in a line: Cytotoxicity against human MCF-10A cells assessed as inhibition of cell growth measured after 24 hrs by MTT assay. The data set is classed as toxicity, cell-based.
The target in data set [4] is T1, Nuclear receptor subfamily 4immunitygroup A member 1 (Homo sapiens, UniProt P22736). Nature of the data set: Binding affinity to His-tagged Nur77 ligand binding domain (unknown origin) at 10 uM by surface plasmon resonance assay. The following applies: filed as modulator. Background: SPR reads the build-up and loss of mass on a sensor chip optically.
T1 sequence (P22736 whole entry, the tested form may be a part): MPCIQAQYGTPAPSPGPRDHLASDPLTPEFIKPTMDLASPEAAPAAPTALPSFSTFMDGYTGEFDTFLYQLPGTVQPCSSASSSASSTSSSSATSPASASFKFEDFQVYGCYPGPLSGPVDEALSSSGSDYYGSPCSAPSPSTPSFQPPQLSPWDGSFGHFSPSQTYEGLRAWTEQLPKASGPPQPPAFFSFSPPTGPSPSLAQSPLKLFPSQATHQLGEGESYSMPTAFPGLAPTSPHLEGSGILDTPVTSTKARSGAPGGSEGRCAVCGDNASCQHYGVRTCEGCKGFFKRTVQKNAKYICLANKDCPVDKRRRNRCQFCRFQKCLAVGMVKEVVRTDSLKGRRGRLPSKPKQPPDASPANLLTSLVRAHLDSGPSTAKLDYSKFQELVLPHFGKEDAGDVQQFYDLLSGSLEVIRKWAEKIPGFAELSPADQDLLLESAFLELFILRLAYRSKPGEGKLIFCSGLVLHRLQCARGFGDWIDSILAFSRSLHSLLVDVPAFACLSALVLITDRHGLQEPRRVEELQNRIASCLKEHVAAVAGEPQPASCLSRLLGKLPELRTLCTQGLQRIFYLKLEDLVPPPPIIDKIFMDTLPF
A short description of data set [5]: Toxicity in Zebra fish AB embryo assessed as mortality rate at 1.25 uM measured after 24 to 72 hrs. Set-up: species or system Danio rerio. To be noted: AB, zebrafish, time 24-72 hrs.
Data set [6] in a line: Toxicity in Zebra fish AB embryo assessed as mortality rate at 1.25 to 5 uM measured after 24 hrs. Also noted: species or system Danio rerio. To be noted: zebrafish, dose 1.25-5 µM.
Data set [7] addresses T1, Nuclear receptor subfamily 4immunitygroup A member 1. The data set is described as follows: Antagonist activity at Nur77 ligand binding domain (unknown origin) transfected in HEK293T cells cotransfected with pG5-Luc assessed as inhibition of receptor transcriptional activity at 2 uM measured after 12 hrs by luciferase reporter gene assay. To be noted: filed as antagonist. In kind it is cell-based. (In general: A reporter such as luciferase makes a cellular process visible.)

Data set [8] shares this target. Nature of the data set: Binding affinity to His-tagged Nur77 ligand binding domain (unknown origin) by surface plasmon resonance assay.

By IC50 is commonly meant the midpoint of a concentration-inhibition curve. As for `CC(C)N(CCNC(=O)c1cc2cc(Nc3nccc(-c4ccccc4)n3)ccc2[nH]1)C(C)C`, the IC50 in data set [1] was found to be 11.1 µM; in data set [2], 9.41 µM. The IC50 at 24 h in data set [3] stood at 4.05 µM.

On to `CCN(CC)CCCNC(=O)c1cc2cc(Nc3nccc(-c4ccc(OC)c(OC)c4)n3)ccc2[nH]1`, for which the IC50 in data set [1] was found to be 5.98 µM; in data set [2], 11.4 µM. In addition, the IC50 at 24 h in data set [3] came out at 3.57 µM. For the same molecule, in data set [4], the result was Active.

For `CN(C)CCCNC(=O)c1cc2cc(Nc3nccc(-c4ccccc4)n3)ccc2[nH]1`, the IC50 in data set [1] is 8.87 µM; in data set [2], 7.88 µM. Also, the IC50 at 24 h in data set [3] was > 20 µM. In data set [4], the outcome was Active.

By mortality is commonly meant the share of the test organisms that died. On to `CC1=C(O)C(=O)C=C2C1=CC=C1[C@@]2(C)CC[C@@]2(C)[C@@H]3C[C@](C)(C(=O)O)CC[C@]3(C)CC[C@]12C` [CELASTROL], for which the mortality at 1.25 µM in data set [5] stood at 100%. Besides, the IC50 in data set [2] is > 20 µM. Also, the IC50 at 24 h in data set [3] is 5.45 µM. Moreover, in data set [4], the result was Active. The mortality at 24 h, up to 5 µM in data set [6] was 100%. Further, the inhibition result in data set [7] is “Active”.

For `O=C(NCCN1CCCCC1)c1cc2cc(Nc3nccc(-c4cccc(OCc5ccccc5)c4)n3)ccc2[nH]1`, the IC50 in data set [1] was 5.41 µM; in data set [2], > 20 µM. The IC50 at 24 h in data set [3] stood at 1.76 µM.

With `CN(C)CCNC(=O)c1cc2cc(Nc3nccc(-c4cccc(OCc5ccccc5)c4)n3)ccc2[nH]1`, the IC50 in data set [1] and in data set [2] was > 20 µM each time. The IC50 at 24 h in data set [3] was > 20 µM.

For the molecule `CN(C)CCNC(=O)c1cc2cc(Nc3nccc(-c4ccc(C(F)(F)F)cc4)n3)ccc2[nH]1`, the IC50 in data set [1] stood at 10.3 µM; in data set [2], 6.71 µM. In data set [3], the 50% inhibitory concentration (IC50) at 24 h was found to be 2.12 µM.

Regarding `CN(C)CCNC(=O)c1cc2cc(Nc3nccc(-c4ccccc4)n3)ccc2[nH]1`, the IC50 is 8.04 µM in data set [1] and > 20 µM in data set [2]. Moreover, the IC50 at 24 h in data set [3] was > 20 µM. The outcome in data set [4] was Active.

On to `CN(C)CCCNC(=O)c1cc2cc(Nc3nccc(-c4cccs4)n3)ccc2[nH]1`, for which the results for the IC50 in data set [1] and in data set [2] were > 20 µM and 4.28 µM, respectively. For the same molecule, the IC50 at 24 h in data set [3] is > 20 µM. Also, the outcome in data set [4] was Active.

For the molecule `CCN(CC)CCCNC(=O)c1cc2cc(Nc3nccc(-c4ccc(C(F)(F)F)cc4)n3)ccc2[nH]1`, the IC50 in data set [1] is 6.52 µM; in data set [2], 6.19 µM. The IC50 at 24 h in data set [3] is 6.57 µM.

`CCN(CC)CCCNC(=O)c1cc2cc(Nc3nccc(-c4cccc(OCc5ccccc5)c4)n3)ccc2[nH]1`: the 50% inhibitory concentration (IC50) in data set [1] and in data set [2] was > 20 µM each time. The IC50 at 24 h in data set [3] was > 20 µM.

With `CCN(CC)CCCNC(=O)c1cc2cc(Nc3nccc(-c4cccs4)n3)ccc2[nH]1`, the IC50 in data set [1] came to 3.27 µM; in data set [2], 8.41 µM. For the same molecule, the IC50 at 24 h in data set [3] came to 14.3 µM. Also, in data set [4], the result was Active.

Broadly, the Kd is the concentration at which binding is half-saturated. Lower therefore signals tighter binding. Take `CN(C)CCCNC(=O)c1cc2ccc(Nc3nccc(-c4cccnc4)n3)cc2[nH]1`: the results for the IC50 in data set [1] and in data set [2] were 3.09 µM and > 20 µM, respectively. For the same molecule, in data set [3], the IC50 at 24 h was > 20 µM. For the same molecule, the result in data set [4] was Active. This molecule also yielded a Kd in data set [8] of 0.354 µM.

On to `COc1ccc(-c2ccnc(Nc3ccc4[nH]c(C(=O)NCCCN(C)C)cc4c3)n2)cc1OC`, for which the IC50 in data set [1] was determined as 2.58 µM; in data set [2], 6.01 µM. For the same molecule, in data set [3], the IC50 at 24 h was 15 µM. Moreover, the result in data set [4] was Active.

On to `COc1ccc2[nH]cc(CCNC(=O)c3cc4cc(Nc5nccc(-c6cccnc6)n5)ccc4[nH]3)c2c1`, for which the IC50 came to 18.2 µM in data set [1] and 8.36 µM in data set [2]. Moreover, the IC50 at 24 h in data set [3] is > 20 µM.

With `CN(C)CCCNC(=O)c1cc2cc(Nc3nccc(-c4ccc(C(F)(F)F)cc4)n3)ccc2[nH]1`, the IC50 in data set [1] is 0.91 µM; in data set [2], 9.23 µM. Further, in data set [3], the IC50 at 24 h was determined as 2.09 µM.

On to `CCCCN(CCCC)CCCNC(=O)c1cc2cc(Nc3nccc(-c4cccnc4)n3)ccc2[nH]1`, for which the IC50 is 4.3 µM in data set [1] and 10.6 µM in data set [2]. Further, in data set [3], the concentration for half-maximal inhibition (IC50) at 24 h came out at 6.48 µM. Further, the result in data set [4] was Active.

Regarding `Cc1nc(-c2ccnc(Nc3ccc4[nH]c(C(=O)NCCN5CCCC5)cc4c3)n2)c(C)s1`, the IC50 in data set [1] and in data set [2] was > 20 µM in each case. Besides, the IC50 at 24 h in data set [3] was > 20 µM.

Turning to `COc1ccc(-c2ccnc(Nc3ccc4[nH]c(C(=O)NCCN5CCCC5)cc4c3)n2)cc1OC`, the IC50 turned out to be 4.02 µM in data set [1] and 3.26 µM in data set [2]. Moreover, the 50% inhibitory concentration (IC50) at 24 h in data set [3] is 9.71 µM.

`CCCCN(CCCC)CCCNC(=O)c1cc2cc(Nc3nccc(-c4ccccc4)n3)ccc2[nH]1`: the IC50 was 7.8 µM in data set [1] and 15.2 µM in data set [2]. Moreover, the half-maximal inhibitory concentration (IC50) at 24 h in data set [3] is 4.96 µM.

In the case of `Cc1nc(-c2ccnc(Nc3ccc4[nH]c(C(=O)NCCN(C)C)cc4c3)n2)c(C)s1`, the concentration for half-maximal inhibition (IC50) in data set [1] was > 20 µM; in data set [2], 3.65 µM. The IC50 at 24 h in data set [3] worked out at 15 µM. Further, the outcome in data set [4] was Active.

Take `CN(C)CCNC(=O)c1cc2cc(Nc3nccc(-c4cccnc4)n3)ccc2[nH]1`: the IC50 was 3.12 µM in data set [1] and > 20 µM in data set [2]. Also, in data set [3], the IC50 at 24 h is > 20 µM.

Consider `CCN(CC)CCCNC(=O)c1cc2cc(Nc3nccc(-c4ccccc4OC)n3)ccc2[nH]1`, for which the figures for the IC50 in data set [1] and in data set [2] were 8.32 µM and 13 µM, respectively. Also, in data set [3], the concentration for half-maximal inhibition (IC50) at 24 h was > 20 µM. In addition, in data set [4], the result was Active.

Regarding `O=C(N/N=C/c1ccncc1)c1ccc(Nc2ccnc3ccccc23)cc1`, in data set [8], the Kd was 1.17 µM.

Take `CCN(CC)CCCNC(=O)c1cc2cc(Nc3nccc(-c4cc(OCc5ccccc5)cc(OCc5ccccc5)c4)n3)ccc2[nH]1`: the IC50 in data set [1] is > 20 µM; in data set [2], 1.89 µM. Also, the IC50 at 24 h in data set [3] came to 2.89 µM.

Take `CCN(CC)CCCNC(=O)c1cc2cc(Nc3nccc(-c4ccc(Cl)s4)n3)ccc2[nH]1`: the values for the IC50 in data set [1] and in data set [2] were 6.7 µM and 2.3 µM, respectively. Besides, the 50% inhibitory concentration (IC50) at 24 h in data set [3] was found to be 5.54 µM. Besides, the outcome in data set [4] was Active.

Consider `COc1ccccc1-c1ccnc(Nc2ccc3[nH]c(C(=O)NCCCN(C)C)cc3c2)n1`, for which the 50% inhibitory concentration (IC50) in data set [1] is 4.79 µM; in data set [2] it was > 20 µM. In addition, the IC50 at 24 h in data set [3] was > 20 µM.

Turning to `CCN(CC)CCCNC(=O)c1cc2cc(Nc3nccc(-c4nc(C)sc4C)n3)ccc2[nH]1`, the IC50 in data set [1] and in data set [2] was > 20 µM each time. Further, the 50% inhibitory concentration (IC50) at 24 h in data set [3] was 19.2 µM. Also, the outcome in data set [4] was Active.

Consider `CCCCCNC(=O)c1cc2cc(Nc3nccc(-c4ccccc4)n3)ccc2[nH]1`, for which the IC50 is 17.3 µM in data set [1] and > 20 µM in data set [2]. The concentration for half-maximal inhibition (IC50) at 24 h in data set [3] is > 20 µM. Moreover, the outcome in data set [4] was Active.

For the molecule `Cc1nc(-c2ccnc(Nc3ccc4[nH]c(C(=O)NCCN5CCOCC5)cc4c3)n2)c(C)s1`, the IC50 in data set [1] and in data set [2] was > 20 µM in each case. Further, the IC50 at 24 h in data set [3] stood at 15.4 µM.

As to `CN(C)CCCNC(=O)c1cc2cc(Nc3nccc(-c4ccc(Cl)s4)n3)ccc2[nH]1`, the IC50 in data set [1] was determined as 6.14 µM; in data set [2], 4.29 µM. In addition, in data set [3], the IC50 at 24 h was found to be 7.43 µM. The result in data set [4] was Active.

Turning to `CN(C)CCCNC(=O)c1cc2cc(Nc3nccc(-c4cc(OCc5ccccc5)cc(OCc5ccccc5)c4)n3)ccc2[nH]1`, the IC50 in data set [1] was 1.69 µM; in data set [2] it was 11.4 µM. Moreover, the IC50 at 24 h in data set [3] amounted to 3.9 µM.

Consider `COc1ccc(-c2ccnc(Nc3ccc4[nH]c(C(=O)NCCN5CCN(C)CC5)cc4c3)n2)cc1OC`, for which the figures for the IC50 in data set [1] and in data set [2] were 17.4 µM and 14.4 µM, respectively. Also, the IC50 at 24 h in data set [3] is > 20 µM.

As for `CCN(CC)CCCNC(=O)c1cc2cc(Nc3nccc(-c4ccccc4)n3)ccc2[nH]1`, the IC50 in data set [1] is 7.24 µM; in data set [2] it was 3.24 µM. Further, the IC50 at 24 h in data set [3] was determined as 13 µM. Moreover, the outcome in data set [4] was Active.

For the molecule `CCN(CC)CCCNC(=O)c1cc2cc(Nc3nccc(-c4cccnc4)n3)ccc2[nH]1`, the IC50 is 10.5 µM in data set [1] and > 20 µM in data set [2]. Further, the IC50 at 24 h in data set [3] is > 20 µM.

Regarding `Cc1nc(-c2ccnc(Nc3ccc4[nH]c(C(=O)NCCCN(C)C)cc4c3)n2)c(C)s1`, the IC50 is > 20 µM in data set [1] and 16 µM in data set [2]. Further, the half-inhibitory concentration (IC50) at 24 h in data set [3] was determined as 15.9 µM.
